Results taken from PubChem BioAssay AID2060326 (Molecular Pharmacology Branch, DTP, NCI, 2025).

Tested on: MDA-MB-468 multi-cell spheroids, viability
Experiment: Anticancer human tumor MDA-MB-468 cell line growth inhibition [IpAb];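 also: spheroids exposed to agents for seven days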;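 as to viability, T/C: 100% = DMSO vehicle control viability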
Details: for IC50: curve of first compound; for viability, T/C: stronger effect = lower value
Procedure, shortened: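 Spheroids of 60% malignant cells, 25% HUVEC and 15% MSC were exposed to targeted agents combined with ipatasertib or abemaciclib. Doses started at or near clinical Cmax (10 microM when unknown) and fell in half-log steps.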

[1] = second compound 0.1 µM, first compound 0.00316 µM
[2] = second compound 0.1 µM, first compound 0.01 µM
[3] = second compound 0.1 µM, first compound 0.0316 µM
[4] = second compound 0.1 µM, first compound 0.1 µM
[5] = second compound 0.1 µM, first compound 0.316 µM
[6] = second compound 0.1 µM, first compound 1 µM
[7] = second compound 0.316 µM, first compound 0.00316 µM
[8] = second compound 0.316 µM, first compound 0.01 µM
[9] = second compound 0.316 µM, first compound 0.0316 µM
[10] = second compound 0.316 µM, first compound 0.1 µM
[11] = second compound 0.316 µM, first compound 0.316 µM
[12] = second compound 0.316 µM, first compound 1 µM
[13] = second compound 1 µM, first compound 0.00316 µM
[14] = second compound 1 µM, first compound 0.01 µM
[15] = second compound 1 µM, first compound 0.0316 µM
[16] = second compound 1 µM, first compound 0.1 µM
[17] = second compound 1 µM, first compound 0.316 µM
[18] = second compound 1 µM, first compound 1 µM

SMILES: COc1c(OCCCN2CCOCC2)ccc2c3n(c(=NC(=O)c4cnc(N)nc4)nc12)CCN3 + CC(C)NCC(C(=O)N1CCN(c2ncnc3c2C(C)CC3O)CC1)c1ccc(Cl)cc1
- IC50 (second compound 0.1 µM): 83.7 nM
- IC50 (second compound 0.316 µM): 33.8 nM
- IC50 (second compound 1 µM): < 3.16 nM
- IC50 (second compound 3.16 µM): < 3.16 nM
- IC50 (second compound 10 µM): < 3.16 nM
- viability, T/C [1]: 98.4%
- viability, T/C [2]: 78.2%
- viability, T/C [3]: 70.2%
- viability, T/C [4]: 49.7%
- viability, T/C [5]: 20.3%
- viability, T/C [6]: 3.61%
- viability, T/C [7]: 68.5%
- viability, T/C [8]: 56.1%
- viability, T/C [9]: 54%
- viability, T/C [10]: 36.3%
- viability, T/C [11]: 18.1%
- viability, T/C [12]: 2.31%
- viability, T/C [13]: 51.3%
- viability, T/C [14]: 40.3%
- viability, T/C [15]: 38.9%
- viability, T/C [16]: 26.8%
- viability, T/C [17]: 11.9%
- viability, T/C [18]: 1.77%
- viability, T/C (second compound 3.16 µM, first compound 0.00316 µM): 30.4%
- viability, T/C (second compound 3.16 µM, first compound 0.01 µM): 26.5%
- viability, T/C (second compound 3.16 µM, first compound 0.0316 µM): 23%
- viability, T/C (second compound 3.16 µM, first compound 0.1 µM): 19.1%
- viability, T/C (second compound 3.16 µM, first compound 0.316 µM): 9.55%
- viability, T/C (second compound 3.16 µM, first compound 1 µM): 1.46%
- viability, T/C (second compound 10 µM, first compound 0.00316 µM): 16.1%
- viability, T/C (second compound 10 µM, first compound 0.01 µM): 12.8%
- viability, T/C (second compound 10 µM, first compound 0.0316 µM): 11%
- viability, T/C (second compound 10 µM, first compound 0.1 µM): 8.37%
- viability, T/C (second compound 10 µM, first compound 0.316 µM): 4.92%
- viability, T/C (second compound 10 µM, first compound 1 µM): 0.95%

SMILES: COc1c(OCCCN2CCOCC2)ccc2c3n(c(=NC(=O)c4cnc(N)nc4)nc12)CCN3 + CCN1CCN(Cc2ccc(Nc3ncc(F)c(-c4cc(F)c5nc(C)n(C(C)C)c5c4)n3)nc2)CC1
- IC50 (second compound 0.01 µM): 145 nM
- IC50 (second compound 0.0316 µM): 109 nM
- IC50 (second compound 0.1 µM): 91.7 nM
- IC50 (second compound 0.316 µM): 111 nM
- IC50 (second compound 1 µM): 75.4 nM
- viability, T/C (second compound 0.01 µM, first compound 0.00316 µM): 101%
- viability, T/C (second compound 0.01 µM, first compound 0.01 µM): 79.4%
- viability, T/C (second compound 0.01 µM, first compound 0.0316 µM): 78.6%
- viability, T/C (second compound 0.01 µM, first compound 0.1 µM): 66.9%
- viability, T/C (second compound 0.01 µM, first compound 0.316 µM): 20.9%
- viability, T/C (second compound 0.01 µM, first compound 1 µM): 3.88%
- viability, T/C (second compound 0.0316 µM, first compound 0.00316 µM): 93%
- viability, T/C (second compound 0.0316 µM, first compound 0.01 µM): 85.6%
- viability, T/C (second compound 0.0316 µM, first compound 0.0316 µM): 73.5%
- viability, T/C (second compound 0.0316 µM, first compound 0.1 µM): 54.7%
- viability, T/C (second compound 0.0316 µM, first compound 0.316 µM): 21.9%
- viability, T/C (second compound 0.0316 µM, first compound 1 µM): 3.58%
- viability, T/C [1]: 109%
- viability, T/C [2]: 93.8%
- viability, T/C [3]: 78.4%
- viability, T/C [4]: 50.1%
- viability, T/C [5]: 16.1%
- viability, T/C [6]: 3.39%
- viability, T/C [7]: 80.6%
- viability, T/C [8]: 98.7%
- viability, T/C [9]: 86.8%
- viability, T/C [10]: 50.8%
- viability, T/C [11]: 21.2%
- viability, T/C [12]: 6.79%
- viability, T/C [13]: 75%
- viability, T/C [14]: 73.6%
- viability, T/C [15]: 59.7%
- viability, T/C [16]: 49%
- viability, T/C [17]: 21%
- viability, T/C [18]: 7.2%

SMILES: CC(C)(C)c1cnc(CSc2cnc(NC(=O)C3CCNCC3)s2)o1 + CC(C)NCC(C(=O)N1CCN(c2ncnc3c2C(C)CC3O)CC1)c1ccc(Cl)cc1
- IC50 (second compound 0.1 µM): 69.1 nM
- IC50 (second compound 0.316 µM): 45.3 nM
- IC50 (second compound 1 µM): 36.9 nM
- IC50 (second compound 3.16 µM): < 9.49 nM
- IC50 (second compound 10 µM): < 9.49 nM
- viability, T/C (second compound 0.1 µM, first compound 0.00949 µM): 110%
- viability, T/C (second compound 0.1 µM, first compound 0.03 µM): 91.4%
- viability, T/C (second compound 0.1 µM, first compound 0.0949 µM): 35%
- viability, T/C (second compound 0.1 µM, first compound 0.3 µM): 0.3%
- viability, T/C (second compound 0.1 µM, first compound 0.949 µM): 0.19%
- viability, T/C (second compound 0.1 µM, first compound 3 µM): 0.32%
- viability, T/C (second compound 0.316 µM, first compound 0.00949 µM): 73.9%
- viability, T/C (second compound 0.316 µM, first compound 0.03 µM): 67.4%
- viability, T/C (second compound 0.316 µM, first compound 0.0949 µM): 18.8%
- viability, T/C (second compound 0.316 µM, first compound 0.3 µM): 0.27%
- viability, T/C (second compound 0.316 µM, first compound 0.949 µM): 0.15%
- viability, T/C (second compound 0.316 µM, first compound 3 µM): 0.27%
- viability, T/C (second compound 1 µM, first compound 0.00949 µM): 62.2%
- viability, T/C (second compound 1 µM, first compound 0.03 µM): 58.7%
- viability, T/C (second compound 1 µM, first compound 0.0949 µM): 10%
- viability, T/C (second compound 1 µM, first compound 0.3 µM): 0.2%
- viability, T/C (second compound 1 µM, first compound 0.949 µM): 0.14%
- viability, T/C (second compound 1 µM, first compound 3 µM): 0.24%
- viability, T/C (second compound 3.16 µM, first compound 0.00949 µM): 41.5%
- viability, T/C (second compound 3.16 µM, first compound 0.03 µM): 35.4%
- viability, T/C (second compound 3.16 µM, first compound 0.0949 µM): 11.5%
- viability, T/C (second compound 3.16 µM, first compound 0.3 µM): 0.23%
- viability, T/C (second compound 3.16 µM, first compound 0.949 µM): 0.13%
- viability, T/C (second compound 3.16 µM, first compound 3 µM): 0.31%
- viability, T/C (second compound 10 µM, first compound 0.00949 µM): 21.3%
- viability, T/C (second compound 10 µM, first compound 0.03 µM): 18.1%
- viability, T/C (second compound 10 µM, first compound 0.0949 µM): 1.19%
- viability, T/C (second compound 10 µM, first compound 0.3 µM): 0.32%
- viability, T/C (second compound 10 µM, first compound 0.949 µM): 0.24%
- viability, T/C (second compound 10 µM, first compound 3 µM): 0.65%
